From patent US20250197337A1, “CONVERSION OF TRIACETIC ACID LACTONE TO POTASSIUM SORBATE” (priority 2023, published 2025)

Columns and labels:
Escherichia coli 1-894-1 = test: microbe, parasite or virus in culture
Procedure: Isolated colonies of Escherichia coli 1-894-1 (ATCC, Manassas, Virginia, USA) were picked from the bacterial culture plate and inoculated into 4-5 mL of TSB liquid medium for all bacterial strains. TSB liquid medium was prepared by dissolving a mixture of 17.0 g pancreatic digest of casein, 3.0 g papaic digest of soybean, 2.5 g dextrose, 5.0 g sodium chloride, and 2.5 g dipotassium phosphate in a final volume of 1,000 mL of distilled water, stirring for at least for 20 minutes, and then sterilizing under high pressure ([…] for 20 minutes at 121° C.). To achieve log phase growth, bacterial cultures were incubated at 37° C. for 2-6 hours based on the 0.5 McFarland standard, which corresponds to approximately 1.5×10^8 CFU/mL when the optical density of a bacterial suspension ranged from 0.08 to 0.1. A 1:20 dilution was made by adding 2.0 ml of the original suspension to 38 mL of PBS buffer, and then a 1:10 dilution was prepared by adding 0.01 ml to each well to obtain a final concentration of about 5.0×10^5 CFU/mL.
(§1) To assess the effectiveness of KS against bacteria and fungi, several tests were conducted in accordance with the Antimicrobial Susceptibility Testing Standards outlined by the Clinical and Laboratory Standards Institute (Malvern, Pennsylvania, USA) (CLSI Mo2-A12, 2015) with some modifications, including the minimal inhibitory concentration (MIC), and an agar diffusion disc test. Potassium sorbate solutions with concentrations ranging from 0.5 to 8.0 mg/ml were combined with bacterial cells (10^5 CFU/mL) and fungal spores (105 conidia/mL) in TSB medium with a pH adjusted to 5.5 for bacteria and in Potato Dextrose Broth (“PDB”) medium (with an original pH of 5.5) for fungi. They were then incubated at 37° C. (for E. coli) for 24 hours and 25° C. (for P. chrysogenum) for 6 days. To determine the minimum inhibitory concentration (“MIC”) of antimicrobial substances, optical density (“OD”) at 600 nm was measured through a Bioscreen C device (Oy Growth Curves Ab Ltd., Turku, Finland) using turbidimetric measurements. The MIC refers to the lowest concentration of antimicrobial that prevents visible growth of microorganisms after incubation. For fungal growth, the MIC was determined based on the inhibition of mycelial growth. The negative control was added the same volume of deionized water without potassium sorbate to observe the growth of bacteria and fungi. Furthermore, to determine assess the survivability of cells and spores when exposed to potassium sorbate for 18 hours, microbial counts were expressed as the logarithm of colony forming units per ml (log CFU/mL). Each measurement was performed in triplicate.

Penicillium chrysogenum = test: microbe, parasite or virus in culture
Procedure: as §1

P. chrysogenum = settings: for spores of P. chrysogenum: concentrations greater than 4 mg/ml, after 6 days of incubation
Procedure: as §1

E. coli = settings: concentration of >3 mg/ml; 24 hours at 37° C.
[1] = previous study; cited from earlier work
[2] = system: E. coli O157:H7 (ATCC 35150); settings: separate study; cited from earlier work
Penicillium italicum = settings: cited from earlier work
[3] = room temperature; cited from earlier work
bacteria and fungi = settings: against bacteria and fungi
Procedure: as §1

## C/C=C/C=C/C(=O)[O-].[K+] [commercial KS, trans, trans-2,4-hexadienoic acid potassium salt]
Escherichia coli 1-894-1; Escherichia coli, 18941, 24 h, pH 5.5, read-out: MIC against E. coli
  MIC: 2000 to 4000 µg/mL
Escherichia coli 1-894-1; concentration of 2 mg/ml
  inhibitory effect on the growth of E. coli: mild inhibitory effect
Escherichia coli 1-894-1; concentration of 4 mg/ml
  inhibitory effect on the growth of E. coli: significant inhibitory effect
Penicillium chrysogenum; Penicillium chrysogenum, 144 h, pH 5.5, read-out: MIC against P. chrysogenum (preventing mycelial growth)
  MIC: 8000 µg/mL
P. chrysogenum
  spores of P. chrysogenum: significantly decreased
E. coli
  inhibitory effects against E. coli (CFU count): significant inhibitory effects

## C/C=C/C=C/C(=O)[O-].[K+] [trans, trans-potassium sorbate]
[1]
  antimicrobial activity compared with the mixture of isomers: higher antimicrobial activity than the mixture of isomers

## C/C=C/C=C/C(=O)[O-].[K+] [KS, potassium sorbate]
[2]
  MIC against E. coli O157:H7 (ATCC 35150): 1600 µg/mL
Penicillium italicum
  MIC against Penicillium italicum: 15000 µg/mL
[3]
  solubility in water: 58.5 g per 100 ml

## C/C=C/C=C\C(=O)[O-].[K+] [TAL-derived KS, cis-2, trans-4 potassium sorbate]
Escherichia coli 1-894-1; concentration of 2 mg/ml
  inhibitory effect on the growth of E. coli: mild inhibitory effect
Escherichia coli 1-894-1; concentration of 4 mg/ml
  inhibitory effect on the growth of E. coli: significant inhibitory effect
Penicillium chrysogenum
  antifungal activities compared with commercial KS: same antifungal activities as commercial KS
Penicillium chrysogenum; PDB medium pH 5.5, 25° C., 6 days
  MIC against P. chrysogenum (preventing mycelial growth): 6000 µg/mL
P. chrysogenum; concentration of 6 mg/mL, 6 days of incubation
  inhibition of P. chrysogenum growth as compared to C-KS: significant inhibition
P. chrysogenum
  spores of P. chrysogenum: significantly decreased
Bacteria and fungi
  antimicrobial activity compared with commercial KS: comparable antimicrobial activities
E. coli
  inhibitory effects against E. coli (CFU count): significant inhibitory effects
